Assay results taken from patent US12384792B2, “Solid forms of isoquinolinones, and process of making, composition comprising, and methods of using the same” (Twelve Therapeutics, Inc., priority 2015, dated 2025).
Converted amounts (≈) assume the structure as drawn. Read-outs that look alike come from different tables or passages of the source. Blank lines part the entries; values can stand above or below the molecule they belong to.

Tests used:
[1] = Kinetic solubility after 30 min in water and in 0.1M HCl; type: physicochemical; settings: thermodynamic from solid, free base, 30 min, read-out: 30 min Kinetic solubility (pH), free base
Text: See tables below for the summarized results.

[2] = Solubility of Compound 1 in acetonitrile/water during controlled crystallization; type: physicochemical
Method: An appropriate amount of acetonitrile/water were added to bring the solution to 80/20 v/v acetonitrile/water at 20 L/kg of Compound 1. The slurry was agitated and heated to 75° C. until all the Compound 1 was dissolved. The clear solution was polished filtered with a Zapcap filter (0.45 μm). The solution was put back into the reactor and cool down to 65° C.
The mixture was held under agitation at 22° C. for 2 hrs after the end of water addition.
20 L/kg of 80/20 v/v acetonitrile/water was added to Compound 1 solid charged into a reactor. The slurry was agitated and heated to 75° C. until all Compound 1 was dissolved. The clear solution was polish filtered with a Zapcap filter (0.45 μm). The solution was put back into the reactor and cooled down to 65° C.

[3] = test system: non-small-cell lung cancer, melanoma, and renal-cell cancer; settings: clinical trial with a total of 296 patients; cited from earlier work
[4] = test system: PI3 kinase (e.g., PI3K-delta); settings: in vitro; cited from earlier work
[5] = test system: PI3 kinase (e.g., PI3K-delta); settings: smoking mice in vivo; cited from earlier work
post-irradiated tumors = settings: cited from earlier work

solubility kinetic at 30 min ([1]; 0.1M HCl, pH 1.5, simulated gastric fluid, in 0.1M HCl, pH 1.5 and 1.3): 10 µg/mL (≈ 0.0189 mM) | solubility kinetic at 30 min ([1]; water, pH 7.1, water, in water (footnote *), pH 7.1 and 6.8): 10 µg/mL (≈ 0.0189 mM) | solubility ([2]; aqueous with cosolvent or surfactant or cyclodextrin, 40/60 v/v acetonitrile/water, 22° C.): ~3000 µg/mL (≈ 5.68 mM) | solubility ([2]; organic solvent or mixture, 80/20 v/v acetonitrile/water, 22° C.): ~18000 µg/mL (≈ 34.1 mM) | solubility ([2]; organic solvent or mixture, 80/20 v/v acetonitrile/water, 65° C.): ~50000 µg/mL (≈ 94.6 mM)
Molecule: C[C@H](NC(=O)c1c(N)nn2cccnc12)c1cc2cccc(C#Cc3cnn(C)c3)c2c(=O)n1-c1ccccc1 [Compound 1, (S)-2-amino-N-(1-(8-((1-methyl-1H-pyrazol-4-yl)ethynyl)-1-oxo-2-phenyl-1,2-dihydroisoquinolin-3-yl)ethyl)pyrazolo[1,5-a]pyrimidine-3-carboxamide]

Molecule: nivolumab: fully human IgG4 monoclonal antibody which specifically blocks PD1
response in non-small-cell lung cancer, melanoma, and renal-cell cancer [3]: complete or partial responses

Molecule: Cn1c(=O)c2[nH]cnc2n(C)c1=O [Theophylline, theophylline]
histone deacetylase-2 and corticosteroid sensitivity [4]: increases | histone deacetylase-2 and corticosteroid sensitivity [5]: increases

Molecule: c1cc(CN2CCCNCCNCCCNCC2)ccc1CN1CCCNCCNCCCNCC1 [AMD3100]
tumor vasculogenesis and tumor regrowth (post-irradiated tumors): blocked
